Test system: M. tuberculosis W4-E1-GFP (Mutant)
Assay type: cell-based, Mycobacterium tuberculosis
Details: read-out: EC50_Mutant

| SMILES | EC50 [nM] |
| --- | --- |
| O=C(CCC(F)(F)F)N1CC(C2CCCCC2)C1 [Example 6, 1-(3-cyclohexylazetidin-1-yl)-4,4,4-trifluoro-butan-1-one] | < 50 |
| O=C(CCC(F)(F)F)N1CC(c2ccc(F)nc2)C1 [Example 33, 4,4,4-trifluoro-1-[3-(6-fluoro-3-pyridyl)azetidin-1-yl]butan-1-one] | 1000 to 10000 |
| O=C(CCC(F)(F)F)N1CC(c2ccc(F)cc2Cl)C1 [Example 20, 1-[3-(2-chloro-4-fluoro-phenyl)azetidin-1-yl]-4,4,4-trifluoro-butan-1-one] | 50 to 250 |
| COC1(c2ccc(F)cc2)CN(C(=O)CCC(F)(F)F)C1 [Example 41, 4,4,4-trifluoro-1-(3-(4-fluorophenyl)-3-methoxyazetidin-1-yl)butan-1-one] | 50 to 250 |
| O=C(CCC(F)(F)F)N1CC(c2ccc(Cl)cc2)C1 [Example 13, 1-[3-(4-chlorophenyl)azetidin-1-yl]-4,4,4-trifluoro-butan-1-one] | 50 to 250 |
| O=C(CCC(F)(F)F)N1CC(c2ccc(Cl)nc2)C1 [Example 19] | 1000 to 10000 |
| COc1ccc(C2CN(C(=O)CCC(F)(F)F)C2)cn1 [Example 22, 4,4,4-trifluoro-1-[3-(6-methoxy-3-pyridyl)azetidin-1-yl]butan-1-one] | 50 to 250 |
| O=C(CCC(F)(F)F)N1CC(c2cccc(C(F)(F)F)c2)C1 [Example 2, 4,4,4-trifluoro-1-[3-[3-(trifluoromethyl)phenyl]azetidin-1-yl]butan-1-one] | 50 to 250 |
| O=C(CCC(F)(F)F)N1CC(N2CCCCC2)C1 [Example 39, 4,4,4-trifluoro-1-(3-(piperidin-1-yl)azetidin-1-yl)butan-1-one] | 1000 to 10000 |
| O=C(CCC(F)(F)F)N1CC(c2cc(Cl)ccn2)C1 [Example 11, 1-[3-(4-chloro-2-pyridyl)azetidin-1-yl]-4,4,4-trifluoro-butan-1-one] | 50 to 250 |
| O=C(CCC(F)(F)F)N1CC(c2ccc(F)c(F)c2)C1 [Example 27, 1-[3-(3,4-difluorophenyl)azetidin-1-yl]-4,4,4-trifluoro-butan-1-one] | < 50 |
| O=C(CCC(F)(F)F)N1CC(c2ccnc(F)c2)C1 [Example 31, 4,4,4-trifluoro-1-[3-(2-fluoro-4-pyridyl)azetidin-1-yl]butan-1-one] | 1000 to 10000 |
| O=C(CCC(F)(F)F)N1CC(c2cncc(Cl)c2)C1 [Example 23, 1-[3-(5-chloro-3-pyridyl)azetidin-1-yl]-4,4,4-trifluoro-butan-1-one] | 1000 to 10000 |
| O=C(CCC(F)(F)F)N1CC(c2cccc(F)c2)C1 [Example 29, 4,4,4-trifluoro-1-[3-(3-fluorophenyl)azetidin-1-yl]butan-1-one] | 50 to 250 |
| O=C(CCC(F)(F)F)N1CC(c2ccc(F)cc2C(F)(F)F)C1 [Example 25, 4,4,4-trifluoro-1-[3-[4-fluoro-2-(trifluoromethyl)phenyl]azetidin-1-yl]butan-1-one] | 250 to 500 |
| O=C(CCC(F)(F)F)N1CC(C2CCCC2)C1 [Example 5, 1-(3-cyclopentylazetidin-1-yl)-4,4,4-trifluoro-butan-1-one] | 50 to 250 |
| CC1(c2ccc(F)cc2)CN(C(=O)CCC(F)(F)F)C1 [Example 42, 4,4,4-trifluoro-1-(3-(4-fluorophenyl)-3-methylazetidin-1-yl)butan-1-one] | 50 to 250 |
| O=C(CCC(F)(F)F)N1CC(c2ccc(F)cn2)C1 [Example 9, 4,4,4-trifluoro-1-[3-(5-fluoro-2-pyridyl)azetidin-1-yl]butan-1-one] | 500 to 1000 |
| O=C(CCC(F)(F)F)N1CC(c2cccnc2)C1 [Example 26, 4,4,4-trifluoro-1-[3-(3-pyridyl)azetidin-1-yl]butan-1-one] | 1000 to 10000 |
| O=C(CCC(F)(F)F)N1CC(C2CCC(F)(F)CC2)C1 [Example 40, 1-(3-(4,4-difluorocyclohexyl)azetidin-1-yl)-4,4,4-trifluorobutan-1-one] | 50 to 250 |
| O=C(CCC(F)(F)F)N1CC(c2ccc(OC(F)(F)F)cc2)C1 [Example 14, 4,4,4-trifluoro-1-[3-[4-(trifluoromethoxy)phenyl]azetidin-1-yl]butan-1-one] | 1000 to 10000 |
| O=C(CCC(F)(F)F)N1CC(N2CCC(F)(F)CC2)C1 [Example 35, 1-[3-(4,4-difluoro-1-piperidyl)azetidin-1-yl]-4,4,4-trifluoro-butan-1-one] | 500 to 1000 |

| SMILES | EC50 [nM] |
| --- | --- |
| O=C(CCC(F)(F)F)N1CC(c2cccc(Cl)c2)C1 [Example 17, 1-[3-(3-chlorophenyl)azetidin-1-yl]-4,4,4-trifluoro-butan-1-one] | < 50 |
| O=C(CCC(F)(F)F)N1CC(c2ccc(OCC(F)(F)F)nc2)C1 [Example 37, 4,4,4-trifluoro-1-[3-[6-(2,2,2-trifluoroethoxy)-3-pyridyl]azetidin-1-yl]butan-1-one] | 1000 to 10000 |
| Cc1cc(F)ccc1C1CN(C(=O)CCC(F)(F)F)C1 [Example 28, 4,4,4-trifluoro-1-[3-(4-fluoro-2-methyl-phenyl)azetidin-1-yl]butan-1-one] | 250 to 500 |
| CC(C)Oc1ccc(C2CN(C(=O)CCC(F)(F)F)C2)cn1 [Example 36, 4,4,4-trifluoro-1-[3-(6-isopropoxy-3-pyridyl)azetidin-1-yl]butan-1-one] | 1000 to 10000 |
| O=C(CCC(F)(F)F)N1CC(c2cncc(C(F)(F)F)c2)C1 [Example 24, 4,4,4-trifluoro-1-[3-[5-(trifluoromethyl)-3-pyridyl]azetidin-1-yl]butan-1-one] | 1000 to 10000 |
| O=C(CCC(F)(F)F)N1CC(c2ccc(F)cc2)C1 [Example 1, 4,4,4-trifluoro-1-[3-(4-fluorophenyl)azetidin-1-yl]butan-1-one] | < 50 |
| O=C(CCC(F)(F)F)N1CC(c2cc(C(F)(F)F)ccn2)C1 [Example 7, 4,4,4-trifluoro-1-[3-[4-(trifluoromethyl)-2-pyridyl]azetidin-1-yl]butan-1-one] | 250 to 500 |
| O=C(CCC(F)(F)F)N1CC(C2CC2)C1 [Example 4, 1-(3-cyclopropylazetidin-1-yl)-4,4,4-trifluoro-butan-1-one] | 500 to 1000 |
| O=C(CCC(F)(F)F)N1CC(c2cccc(OC(F)(F)F)c2)C1 [Example 15, 4,4,4-trifluoro-1-[3-[3-(trifluoromethoxy)phenyl]azetidin-1-yl]butan-1-one] | 50 to 250 |
| N#Cc1ccc(C2CN(C(=O)CCC(F)(F)F)C2)cc1 [Example 43, 4-(1-(4,4,4-trifluorobutanoyl)azetidin-3-yl)benzonitrile] | 1000 to 10000 |
| O=C(CCC(F)(F)F)N1CC(c2ccnc(Cl)c2)C1 [Example 32, 1-[3-(2-chloro-4-pyridyl)azetidin-1-yl]-4,4,4-trifluoro-butan-1-one] | 1000 to 10000 |
| O=C(CCC(F)(F)F)N1CC(c2ccc(F)cc2F)C1 [Example 18, 1-[3-(2,4-difluorophenyl)azetidin-1-yl]-4,4,4-trifluoro-butan-1-one] | < 50 |
| O=C(CCC(F)(F)F)N1CC(C2CCOCC2)C1 [Example 38, 4,4,4-trifluoro-1-(3-(tetrahydro-2H-pyran-4-yl)azetidin-1-yl)butan-1-one] | 1000 to 10000 |
| O=C(CCC(F)(F)F)N1CC(c2ccnc(C(F)(F)F)c2)C1 [Example 12, 4,4,4-trifluoro-1-[3-[2-(trifluoromethyl)-4-pyridyl]azetidin-1-yl]butan-1-one] | 1000 to 10000 |
| O=C(CCC(F)(F)F)N1CC(c2ccncc2)C1 [Example 30, 4,4,4-trifluoro-1-[3-(4-pyridyl)azetidin-1-yl]butan-1-one] | 1000 to 10000 |
| O=C(CCCC(F)(F)F)N1CC(c2ccc(F)cc2)C1 [Example 3, 5,5,5-trifluoro-1-[3-(4-fluorophenyl)azetidin-1-yl]pentan-1-one] | 50 to 250 |
| O=C(CCC(F)(F)F)N1CC(c2ccc(C(F)(F)F)cc2)C1 [Example 16] | 250 to 500 |
| O=C(CCC(F)(F)F)N1CC(c2ncc(F)cc2F)C1 [Example 10, 1-[3-(3,5-difluoro-2-pyridyl)azetidin-1-yl]-4,4,4-trifluoro-butan-1-one] | 250 to 500 |
| O=C(CCC(F)(F)F)N1CC(c2ccc(C(F)(F)F)cn2)C1 [Example 8, 4,4,4-trifluoro-1-[3-[5-(trifluoromethyl)-2-pyridyl]azetidin-1-yl]butan-1-one] | 500 to 1000 |
| O=C(CCC(F)(F)F)N1CC(c2ccc(C(F)(F)F)nc2)C1 [Example 21, 4,4,4-trifluoro-1-[3-[6-(trifluoromethyl)-3-pyridyl]azetidin-1-yl]butan-1-one] | 1000 to 10000 |
| O=C(CCC(F)(F)F)N1CC(F)(c2ccc(F)cc2)C1 [Example 44, 4,4,4-trifluoro-1-(3-fluoro-3-(4-fluorophenyl)azetidin-1-yl)butan-1-one] | < 50 |
| O=C(CCC(F)(F)F)N1CC(c2cc(F)c(F)c(F)c2)C1 [Example 34, 4,4,4-trifluoro-1-[3-(3,4,5-trifluorophenyl)azetidin-1-yl]butan-1-one] | 50 to 250 |
